Reference: patent publication US20110232180A1, “Method of applying calcium magnesium acetate to affect growth of unwanted broadleaf weeds in lawn grasses” (priority 2010, published 2011)

Legend:
violet weeds = assay: calcium magnesium acetate grains or triclopyr liquid applied to violet weeds in lawn grasses; type: in vivo
Source text: (§1) These are not mandatory steps, it simply helps reduce fall off of the grains on the leaves. Alternatively, without the binder and size reduction, the grains could rest by simple placement on the leaves of the weed.

[1] = tested on: environment, ducks and fish; settings: cited from earlier work
testosterone in men = settings: by-product of triclopyr; cited from earlier work
broadleaf weeds = settings: granular substance applied to the leaves of the weeds
Source text: A novel unknown use of calcium magnesium acetate is as an effective eliminator of certain broadleaf weeds which invade lawn grasses. When applying the granular substance to the leaves of the weeds, it can produce desired results, very quickly, much faster then many previously known toxic compositions. This method can work in as little as two days.
as §1

Compound | treatments needed to affect violet weeds (violet weeds; liquid form applied once a month to lawns with violet weeds) | toxicity to the environment [1] | effect on testosterone in men (testosterone in men) | time in which the grains eliminate / control violet weeds (violet weeds; grains applied to leaves of violet weeds in lawn) | time in which the method works on broadleaf weeds (broadleaf weeds) | effect on lawn grasses around or near the violet weeds (common lawn grasses; applied by the method (grains isolated on the target weed, limited amount)) | effect on lawn grasses (common lawn grasses; extreme over applications of the granular product)
O=C(O)COc1nc(Cl)c(Cl)cc1Cl [triclopyr, reference compound] | several monthly treatments just to diminish part of the plant | slightly toxic to the environment, ducks and fish |  |  |  |  | 
tricloropyridine |  |  | lower testosterone in men |  |  |  | 
calcium magnesium acetate |  | non-toxic to the environment |  | two | two | little or no adverse affect | did affect common lawn grasses
